# Measured values: patent US20120016014A1, “BENZOTHIOPHENE CARBOXAMIDE COMPOUNDS, COMPOSITION AND APPLICATIONS THEREOF” (INDIAN INSTITUTE OF SCIENCE, priority 2010, published 2012)
# How the values were obtained:
# [1] = tested on: hepatic cell stages of P. berghei; experiment: Inhibition of hepatic cell stages (EEFs) of P. berghei; type: cell-based
# [2] = Mechanical hyperalgesia, Randall-Selitto, carrageenan induced; type: in vivo, rats; settings: 15 mg/kg b wt., after 1 hrs, basal level in 5 hrs
# Procedure: Mechanical hyperalgesia was measured as hind limb withdrawal threshold in response to a mechanical stimulus applied to hind paws of rat using Randall-selitto meter, Randall and Selitto, 1957. To determine the mechanical hyperalgesia, the force was applied with increased pressure at a constant rate until the animal withdrew its limb. The base line nociceptive threshold was measured before induction of hyperalgesia. Moreover, hyperalgesia was induced by carrageenan and then groups of animal were treated with compound 4, compound 6 and compound 8 (15 mg/kg body weight) and Ibuprofen (50 mg/kg body weight). Control group was treated with physiological saline. […] The anti-nociceptive efficacy of the compounds has been evaluated the efficacy with paw withdrawal threshold latency of animals.
# [3] = tested on: Plasmodium falciparum 3D7; experiment: In vitro inhibition of P. falciparum 3D7 blood-stage parasites; type: cell-based
# Procedure: Benzothiophene carboxamide derivatives of the present invention were checked for their anti-parasitic activity against 3D7 (chloroquine sensitive strain) in an in vitro culture. […] To find out parasite stage where these compounds act, synchronised ring stage culture of P. falciparum was treated with 2.5 μM concentration of compounds 6 and 7. […] When compounds 6 and 7 were added at the trophozoite stage the cells could not proceed to the schizont stage indicating the growth inhibition occurs at trophozoite stage.
# Synchronised culture of P. falciparum 3D7 was treated with 2.5 μM compound 10 and 11 at the ring stage.
# Tail flick latency test = settings: 15 mg/kg b. wt. vs Ibuprofen 50 mg/kg b. wt., 30 min and 60 min post injection
# Procedure: Hot plate latency test was performed under red light on the metal surface of hot plate analgesia meter (IITC, Life science, CA). Animals were placed individually on the surface of hot plate maintained at a constant temperature 54±1° C. The anti-nociceptive response was latency recorded from the time when animal was placed on the heated surface until the behavior response show licking of hind paw to avoid thermal nociception. A maximum hot plate latency of 30 sec was used for each animal to prevent paw tissue damage. Base line nociceptive latency was obtained for each animal prior to any drug administration. Thereafter, groups of animals were treated with different concentration of different derivatives of benzothiophene and well known NSAIDs. […] Subsequent nociceptive response latency for each animal was determined at 30 and 60 min after drug administration. […] In continuation of tail flick latency assay, the anti-nociceptive effect of the compounds was monitored. Rats treated as described above were subjected to determination of thermal nociceptive pain. Rats were confined in restrainer and allowed to accommodate. The tail withdrawal test consisted of immersing the posterior 8-10 cm of the tail in hot water bath maintained at 54±1° C. Withdrawal latency for tail flicking was measured. A maximum tail flick latency of 20 sec was permitted to minimize tissue damage.
# purified PfENR [4] = biological target: T1, purified PfENR (Plasmodium falciparum, UniProt Q9BH77); experiment: PfENR inhibition, standard enzyme assay; type: biochemical; settings: read-out: Inhibition of PfENR (IC50 μM)
# T1 sequence (Q9BH77 22-432): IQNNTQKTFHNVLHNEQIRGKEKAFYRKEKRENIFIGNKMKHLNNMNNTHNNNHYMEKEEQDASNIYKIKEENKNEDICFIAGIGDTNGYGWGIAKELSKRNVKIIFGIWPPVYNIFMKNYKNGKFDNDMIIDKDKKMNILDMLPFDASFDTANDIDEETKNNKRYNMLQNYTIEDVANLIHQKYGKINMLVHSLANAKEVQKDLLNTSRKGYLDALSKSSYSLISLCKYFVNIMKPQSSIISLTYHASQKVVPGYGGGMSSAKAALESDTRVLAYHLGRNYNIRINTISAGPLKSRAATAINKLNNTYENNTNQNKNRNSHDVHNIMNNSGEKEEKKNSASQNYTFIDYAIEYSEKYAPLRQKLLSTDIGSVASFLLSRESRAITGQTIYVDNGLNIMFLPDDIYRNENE
# Procedure: (§1) PfENR activity was determined using standard assay described earlier.
# purified PfENR [5] = biological target: T1, purified PfENR; experiment: PfENR inhibition kinetics, cofactor potency and progress curve analysis; type: biochemical
# Procedure: as §1
# The accumulation of product further decreased when compound 6 was preincubated with the enzyme (curve c). On addition of NAD+ to this reaction the rate of product accumulation further decreased (curve d).
# Progress curves for inhibition by varying concentrations of compounds 6 and 7 were examined in detail (FIGS. 16a and 16b). From the progress curve analyses, it was inferred that for each concentration of the inhibitors the initial and the steady state velocity decreased exponentially with time. At higher inhibitor concentration, steady state is reached rapidly with a decrease in steady state velocity (vs). […] Progress curves were analysed using equation 3a from which a series of Kobs values were obtained for each concentration of inhibitor.
# [6] = tested on: blood-stage P. berghei ANKA; experiment: Experimental cerebral malaria in C57BL/6 mice; type: in vivo; settings: for Mean Survival Days (Observed for 25 days): 5 mg/kg body weight daily for six days
# Procedure: C57BL/6 mice were infected with blood-stage P. berghei ANKA as discussed in the experimental section. After 24 hours of infection mice were treated intravenously with various doses of inhibitors. It was observed that all control mice developed hypothermia by day 2, ataxia and convulsions by day 3 and died by day 6, whereas inhibitor treated groups had considerably higher longevity (11-24 days). Though each group of mice developed hypothermia by day 4, convulsions and ataxia development were delayed in case of treated mice. […] The mice treated with 2.5 mg/kg body weight survived for 18 days. Even at or below 1 mg/kg body weight of inhibitor dose, the mice survived for 11 days, but paralysis and ataxia development occurred on Day 7.
# […]. The mice were treated for 6 days. […]. Chloroquine was used as the control drug. […].
# Therefore, compounds 10 and 11 were also administered at 5 mg/Kg body weight. The compounds were administered through intraperitoneal, peroral, subcutaneous and intravenous routes. Compound 10 and 11 were administered once daily for 6 days. […]. The mean survival days for this treatment group was 16 (FIG. 12c and Table III). […]. Chloroquine was used as the control drug.
# [7] = Hot plate latency test (thermal hyperalgesia); type: in vivo, rats
# Procedure: The animals were housed in an animal house facility of National Institute of Immunology, India, with controlled temperature (22±2° C.) under a 12/12 h light/dark cycle. They had free access to food and water ad libitum. All experiments were conducted according to the guidelines of the international association for the study of pain and approved by the institutional ethical committee for animal research. All in vivo experiments were carried out on inbred male […] rats ( 200-320 g body weight). Same age and equal body weight of animals were used according to experiments. No animals were used for more than one experiment. Most popular non-steroidal anti-inflammatory drugs which are widely use for treatment of chronic and inflammatory pain, such as Ibuprofen, Naproxen, Ketoprofen, Aspirin, Nimesulide, Indomethacine were purchased from Cayman Chemicals, USA and used to evaluate the efficacy of drugs in animal model. These drugs and different derivatives of Benzothiophene were dissolved in minimum volume of Dimethyl sulfoxide (DMSO) and further diluted in Phosphate buffer saline prior to use. […] Withdrawal latency for tail flicking was measured. […] NSAIDs is commonly evaluated by hot plate latency assay whereby animals are exposed to thermal stimulus (54 degree […] time for hind paw licking is measured as behavioural response for pain.
# HepG2 cells = experiment: Toxicity to HepG2 cells; type: cell-based; settings: one day treatment
smiles,measurement,setting,value
"O=C(NCc1ccc(F)cc1)c1sc2ccccc2c1Br [Compound 6, N-(4-fluorobenzyl)-3-bromobenzo[b]thiophene-2-carboxamide]",IC50,"[1]; Plasmodium berghei, 48 h, hepatic cell stages of P. berghei, two days treatment",51 µM
same,Therapeutic Index (TI) [=TC50/IC50],[1]; TC50 HepG2 / IC50 EEFs,39.0 ± 4
same,"Mechanical hyperalgesia, paw withdrawal threshold",[2],significantly reversed the mechanical hyperalgesia
same,Stage of parasite growth arrest,"[3]; 2.5 μM, added at ring stage, P. falciparum 3D7",arrested at the trophozoite stage
same,Parasites observed to be dead,"[3]; 2.5 μM, synchronised ring stage culture of P. falciparum 3D7",~90%
same,IC50,"[3]; Erythrocyte, growth inhibition, red blood cell stages of Plasmodium falciparum 3D7 (chloroquine sensitive), read-out: P. falciparum (IC50 μM)",1 ± 0.3 µM
same,"Anti-nociceptive response, tail flick latency assay",Tail flick latency test,better anti-nociceptive response than the Ibuprofen
same,IC50,purified PfENR [4],0.115 ± 0.12 µM
same,Effect of NAD+ on binding to PfENR (cofactor potency assay),purified PfENR [5]; 10 μM NAD+ added to preincubated mixture,potentiate the binding
same,Inhibition kinetics with respect to NADH,"purified PfENR [5]; Dixon plot, cofactor NADH",competitive kinetics with NADH
same,Inhibition kinetics with respect to crotonoyl CoA,"purified PfENR [5]; Dixon plot, substrate crotonoyl CoA",uncompetitive against crotonoyl CoA
same,Binding behaviour from progress curves,purified PfENR [5]; inhibitor 0-750 nM,slow tight binding behaviour
same,Isomerization rate constant (k5 * 10^−2) (s^−1),"purified PfENR [5]; purified PfENR, progress curves",1.19 ± .045 10^−2 s^−1
same,koff,"purified PfENR [5]; purified PfENR, progress curves, read-out: Dissociation rate constant (k6* 10^−3)",0.001 s⁻¹
same,Ki,"purified PfENR [5]; purified PfENR, read-out: Dissociation constant (Ki)",0.0489 µM
same,"Survival, dose determination","[6]; 2.5 mg/kg body weight intravenously, C57BL/6 mice",18 days
same,"Kidney and liver functions (urea, creatinine and glucose levels)",[6]; 5 mg/kg body weight,normal kidney and liver functions
same,"Survival, dose determination","[6]; 5 mg/kg body weight intravenously, C57BL/6 mice",24 days
same,"Survival, dose determination","[6]; 10 mg/kg body weight intravenously, C57BL/6 mice",20 days
same,Mean Survival Days (Observed for 25 days),"[6]; Intraperitoneal, C57BL/6 mice, 5 mg/kg",20 ± 0.9 days
same,Mean Survival Days (Observed for 25 days),"[6]; Intraperitoneal, C57BL/6 mice, listed as compound 6, 5 mg/kg",21 days
same,Mean Survival Days (Observed for 25 days),"[6]; Intravenous, C57BL/6 mice, 5 mg/kg",24 ± 2.0 days
same,Mean Survival Days (Observed for 25 days),"[6]; Intravenous, C57BL/6 mice, listed as compound 6, 5 mg/kg",24 days
same,Mean Survival Days (Observed for 25 days),"[6]; Per oral, C57BL/6 mice",12 ± 1.2 days
same,Mean Survival Days (Observed for 25 days),"[6]; Subcutaneous, C57BL/6 mice, 5 mg/kg",18 ± 1.3 days
same,Mean Survival Days (Observed for 25 days),"[6]; Subcutaneous, C57BL/6 mice, listed as compound 6, 5 mg/kg",21 days
same,"Survival, dose determination","[6]; at or below 1 mg/kg body weight intravenously, C57BL/6 mice",11 days
same,Parasitemia levels (Peter's test),"[6]; intravenous treatment, C57BL/6 mice",undetectable level by Day 18
same,Increase of longevity,"[6]; oral route, 5 mg/kg body weight, 6 days treatment",5 days
same,"MPE index, hot plate latency assay","[7]; 15 mg/kg b. wt. i.p., 30 and 60 min",preeminent analgesic activity compared to other compounds
same,"Analgesic activity compared with Ibuprofen, hot plate",[7]; compounds 15 mg/kg b. wt. vs Ibuprofen 50 mg/kg b. wt.,potent analgesic activity at much lower concentration than Ibuprofen
same,TC50 for HepG2 cells,HepG2 cells,2000 ± 200 µM
